According to patent US11358952B2, “Substituted 4-aminoisoindoline-1,3-dione compounds, compositions thereof, and methods of treatment therewith” (Celgene Corporation, priority 2018, dated 2022):
pIC50: −log10 of the molar value.

Each compound was assayed on SU-DHL-4 cell line (assay: SU-DHL-4 cell proliferation assay (Cell Titer-Glo viability)). Details: Homo sapiens; cell viability IC50 activity level, DLBCL cell line SU-DHL-4, 120 hours post-treatment; read-out: SU-DHL-4 Act.
Format: cell-based
Summary of the method: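 SU-DHL-4 cells (500/well, RPMI-1640 + 10% FBS) exposed to 20-point compound dilutions (0.5 nM–10 μM, 0.1% DMSO) for 120 h at 37°C, 5% CO2. Viability measured by Cell Titer-Glo luminescence at t0 and at 120 h. IC50 is the concentration giving 50% of DMSO control, from a four-parameter logistic fit.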

| pIC50 | SMILES |
| --- | --- |
| > 6.70 | Cc1cc(CNc2cccc3c2C(=O)N(C2CCC(=O)NC2=O)C3=O)ccc1CN1CCN(c2ccc(C(N)=O)cn2)CC1 (stereo not drawn) [Cpd 205, 6-(4-(4-((2-(2,6-dioxopiperidin-3-yl)-1,3-dioxoisoindolin-4-ylamino)methyl)-2-methylbenzyl)piperazin-1-yl)nicotinamide] |
| > 6.70 | NC(=O)c1ccc(N2CCN(Cc3ccc(CNc4cccc5c4C(=O)N([C@@H]4CCC(=O)NC4=O)C5=O)c(F)c3)CC2)nc1 [Cpd 206, (R)-6-(4-(4-((2-(2,6-dioxopiperidin-3-yl)-1,3-dioxoisoindolin-4-ylamino)methyl)-3-fluorobenzyl)piperazin-1-yl)nicotinamide] |
| > 6.70 | NC(=O)c1ccc(N2CCN(Cc3ccc(CNc4cccc5c4C(=O)N([C@H]4CCC(=O)NC4=O)C5=O)c(F)c3)CC2)nc1 [Cpd 207, (S)-6-(4-(4-((2-(2,6-dioxopiperidin-3-yl)-1,3-dioxoisoindolin-4-ylamino)methyl)-3-fluorobenzyl)piperazin-1-yl)nicotinamide] |
| > 6.70 | O=C1CC[C@H](N2C(=O)c3cccc(NCc4ccc(CN5CC(N6CCOCC6)C5)cc4F)c3C2=O)C(=O)N1 [Cpd 208, (S)-2-(2,6-dioxopiperidin-3-yl)-4-(2-fluoro-4-((3-morpholinoazetidin-1-yl)methyl)benzylamino)isoindoline-1,3-dione] |
| > 6.70 | O=C1CC[C@@H](N2C(=O)c3cccc(NCc4ccc(CN5CC(N6CCOCC6)C5)cc4F)c3C2=O)C(=O)N1 [Cpd 209, (R)-2-(2,6-dioxopiperidin-3-yl)-4-(2-fluoro-4-((3-morpholinoazetidin-1-yl)methyl)benzylamino)isoindoline-1,3-dione] |
| 6.30 to 6.70 | O=C1CCC(N2C(=O)c3cccc(NCc4ccc(CN5CCC(N6CCOCC6)CC5)cc4)c3C2=O)C(=O)N1 (stereo not drawn) [Cpd 210, 2-(2,6-dioxopiperidin-3-yl)-4-(4-((4-morpholinopiperidin-1-yl)methyl)benzylamino)isoindoline-1,3-dione] |
| 6.30 to 6.70 | Cc1cc(CNc2cccc3c2C(=O)N(C2CCC(=O)NC2=O)C3=O)ccc1CN1CCC(N2CCOCC2)CC1 (stereo not drawn) [Cpd 211, 2-(2,6-dioxopiperidin-3-yl)-4-(3-methyl-4-((4-morpholinopiperidin-1-yl)methyl)benzylamino)isoindoline-1,3-dione] |
| > 6.70 | O=C1CCC(N2C(=O)c3cccc(NCc4ccc(CN5CCC(C6CCOCC6)CC5)cc4)c3C2=O)C(=O)N1 (stereo not drawn) [Cpd 213, 2-(2,6-dioxopiperidin-3-yl)-4-(4-((4-(tetrahydro-2H-pyran-4-yl)piperridin-1-yl)methyl)benzylamino)isoindoline-1,3-dione] |
| > 6.70 | Cc1cc(CNc2cccc3c2C(=O)N(C2CCC(=O)NC2=O)C3=O)ccc1CN1CCC(C2CCOCC2)CC1 (stereo not drawn) [Cpd 214, 2-(2,6-dioxopiperidin-3-yl)-4-(3-methyl-4-((4-(tetrahydro-2H-pyran-4-yl)piperidin-1-yl)methyl)benzylamino)isoindoline-1,3-dione] |
| > 6.70 | O=C1CCC(N2C(=O)c3cccc(NCc4ccc(CN5CCC(C6CCOCC6)CC5)cc4F)c3C2=O)C(=O)N1 (stereo not drawn) [Cpd 215, 2-(2,6-dioxopiperidin-3-yl)-4-(2-fluoro-4-((4-(tetrahydro-2H-pyran-4-yl)piperidin-1-yl)methyl)benzylamino)isoindoline-1,3-dione] |
| > 6.70 | O=C1CCC(N2C(=O)c3cccc(NCc4ccc(CN5CC(N6CCCC6)C5)cc4)c3C2=O)C(=O)N1 (stereo not drawn) [Cpd 216, 2-(2,6-dioxopiperidin-3-yl)-4-(4-((3-(pyrrolidin-1-yl)azetidin-1-yl)methyl)benzylamino)isoindoline-1,3-dione] |
| > 6.70 | Cc1cc(CNc2cccc3c2C(=O)N(C2CCC(=O)NC2=O)C3=O)ccc1CN1CC(N2CCCC2)C1 (stereo not drawn) [Cpd 217, 2-(2,6-dioxopiperidin-3-yl)-4-(3-methyl-4-((3-(pyrrolidin-1-yl)azetidin-1-yl)methyl)benzylamino)isoindoline-1,3-dione] |
| > 6.70 | O=C1CCC(N2C(=O)c3cccc(NCc4ccc(CN5CC(N6CCCC6)C5)cc4F)c3C2=O)C(=O)N1 (stereo not drawn) [Cpd 218, 2-(2,6-dioxopiperidin-3-yl)-4-(2-fluoro-4-((3-(pyrrolidin-1-yl)azetidin-1-yl)methyl)benzylamino)isoindoline-1,3-dione] |
| > 6.70 | O=C1CCC(N2C(=O)c3cccc(NCc4ccc(CN5CC6(CCOCC6)C5)cc4)c3C2=O)C(=O)N1 (stereo not drawn) [Cpd 219, 4-(4-(7-oxa-2-azaspiro[3.5]nonan-2-ylmethyl)benzylamino)-2-(2,6-dioxopiperidin-3-yl)isoindoline-1,3-dione] |
| > 6.70 | Cc1cc(CNc2cccc3c2C(=O)N(C2CCC(=O)NC2=O)C3=O)ccc1CN1CC2(CCOCC2)C1 (stereo not drawn) [Cpd 220, 4-(4-(7-oxa-2-azaspiro[3.5]nonan-2-ylmethyl)-3-methylbenzylamino)-2-(2,6-dioxopiperidin-3-yl)isoindoline-1,3-dione] |
| > 6.70 | O=C1CCC(N2C(=O)c3cccc(NCc4ccc(CN5CC6(CCOCC6)C5)cc4F)c3C2=O)C(=O)N1 (stereo not drawn) [Cpd 221, 4-(4-(7-oxa-2-azaspiro[3.5]nonan-2-ylmethyl)-2-fluorobenzylamino)-2-(2,6-dioxopiperidin-3-yl)isoindoline-1,3-dione] |
| 6.30 to 6.70 | C[C@@H]1CN(C2CN(Cc3ccc(CNc4cccc5c4C(=O)N(C4CCC(=O)NC4=O)C5=O)c(F)c3)C2)C[C@H](C)O1 (stereo partly drawn) [Cpd 222, 4-(4-((3-((2R,6S)-2,6-dimethylmorpholino)azetidin-1-yl)methyl)-2-fluorobenzylamino)-2-(2,6-dioxopiperidin-3-yl)isoindoline-1,3-dione] |
| > 6.70 | Cc1cc(CNc2cccc3c2C(=O)N(C2CCC(=O)NC2=O)C3=O)ccc1CN1CC(N2CC3CCC(C2)O3)C1 (stereo not drawn) [Cpd 223, 4-(4-((3-(8-oxa-3-azabicyclo[3.2.1]octan-3-yl)azetidin-1-yl)methyl)-3-methylbenzylamino)-2-(2,6-dioxopiperidin-3-yl)isoindoline-1,3-dione] |
| > 6.70 | O=C1CCC(N2C(=O)c3cccc(NCc4ccc(CN5CC(N6CC7CCC(C6)O7)C5)cc4)c3C2=O)C(=O)N1 (stereo not drawn) [Cpd 224, 4-(4-((3-(8-oxa-3-azabicyclo[3.2.1]octan-3-yl)azetidin-1-yl)methyl)benzylamino)-2-(2,6-dioxopiperidin-3-yl)isoindoline-1,3-dione] |
| > 6.70 | O=C1CCC(N2C(=O)c3cccc(NCc4ccc(CN5CC(N6CC7CCC(C6)O7)C5)cc4F)c3C2=O)C(=O)N1 (stereo not drawn) [Cpd 225, 4-(4-((3-(8-oxa-3-azabicyclo[3.2.1]octan-3-yl)azetidin-1-yl)methyl)-2-fluorobenzylamino)-2-(2,6-dioxopiperidin-3-yl)isoindoline-1,3-dione] |
| 6.30 to 6.70 | O=C1CCC(N2C(=O)c3cccc(NCc4ccc(CN5CC6(COC6)C5)cc4F)c3C2=O)C(=O)N1 (stereo not drawn) [Cpd 226, 4-(4-(2-oxa-6-azaspiro[3.3]heptan-6-ylmethyl)-2-fluorobenzylamino)-2-(2,6-dioxopiperidin-3-yl)isoindoline-1,3-dione] |
| > 6.70 | O=C1CCC(N2C(=O)c3cccc(NCc4ccc(CN5CCC6(COC6)C5)cc4F)c3C2=O)C(=O)N1 (stereo not drawn) [Cpd 227, 4-(4-(2-oxa-6-azaspiro[3.4]octan-6-ylmethyl)-2-fluorobenylamino)-2-(2,6-dioxopiperidin-3-yl)isoindoline-1,3-dione] |
| 6.30 to 6.70 | Cc1cc(CNc2cccc3c2C(=O)N(C2CCC(=O)NC2=O)C3=O)ccc1CN1CC2(COC2)C1 (stereo not drawn) [Cpd 228, 4-(4-(2-oxa-6-aaspiro[3.3]heptan-6-ylmethyl)-3-methylbenzylamino)-2-(2,6-dioxopiperidin-3-yl)isoindoline-1,3-dione] |
| 6.12 to 6.30 | Cc1cc(CNc2cccc3c2C(=O)N(C2CCC(=O)NC2=O)C3=O)ccc1CN1CCC2(COC2)C1 (stereo not drawn) [Cpd 229, 4-(4-(2-oxa-6-azaspiro[3.4]octan-6-ylmethyl)-3-methylbenzylamino)-2-(2,6-dioxopiperidin-3-yl)isoindoline-1,3-dione] |
| > 6.70 | O=C1CCC(N2C(=O)c3cccc(NCc4ccc(CN5CC6(CCCO6)C5)cc4F)c3C2=O)C(=O)N1 (stereo not drawn) [Cpd 230, 4-(4-(5-oxa-2-azaspiro[3.4]octan-2-ylmethyl)-2-fluorobenzylamino)-2-(2,6-dioxopiperidin-3-yl)isoindoline-1,3-dione] |
| > 6.70 | O=C1CCC(N2C(=O)c3cccc(NCc4ccc(CN5CCC6(CCOC6)CC5)cc4F)c3C2=O)C(=O)N1 (stereo not drawn) [Cpd 231, 4-(4-(2-oxa-8-azaspiro[4.5]decan-8-ylmethyl)-2-fluorobenzylamino)-2-(2,6-dioxopiperidin-3-yl)isoindoline-1,3-dione] |
| > 6.70 | Cc1cc(CNc2cccc3c2C(=O)N(C2CCC(=O)NC2=O)C3=O)ccc1CN1CC2(CCCO2)C1 (stereo not drawn) [Cpd 232, 4-(4-(5-oxa-2-azaspiro[3.4]octan-2-ylmethyl)-3-methylbenzylamino)-2-(2,6-dioxopiperidin-3-yl)isoindoline-1,3-dione] |
| > 6.70 | Cc1cc(CNc2cccc3c2C(=O)N(C2CCC(=O)NC2=O)C3=O)ccc1CN1CCC2(CCOC2)CC1 (stereo not drawn) [Cpd 233, 4-(4-(2-oxa-8-azaspiro[4.5]decan-8-ylmethyl)-3-methylbenzylamino)-2-(2,6-dioxopiperidin-3-yl)isoindoline-1,3-dione] |
| > 6.70 | O=C1CCC(N2C(=O)c3cccc(NCc4ccc(CN5CCC6(CCOCC6)CC5)cc4F)c3C2=O)C(=O)N1 (stereo not drawn) [Cpd 234, 4-(4-(3-oxa-9-azaspiro[5.5]undecan-9-ylmethyl)-2-fluorobenzylamino)-2-(2,6-dioxopiperidin-3-yl)isoindoline-1,3-dione] |
| 6.12 to 6.30 | CC1(C)CN(C2CN(Cc3ccc(CNc4cccc5c4C(=O)N(C4CCC(=O)NC4=O)C5=O)cc3)C2)CCO1 (stereo not drawn) [Cpd 235, 4-(4-((3-(2,2-dimethylmorpholino)azetidin-1-yl)methyl)benzylamino)-2-(2,6-dioxopiperidin-3-yl)isoindoline-1,3-dione] |
